Results reported in ChEMBL document CHEMBL1201862, “PubChem BioAssay data set” (2004).
The source made the active and inactive calls.

Experiments:
[1] = NIH3T3 cell viability loss – ATP luminescence, mouse fibroblasts, counter-screen, dose response (AID 2010); format: functional, cell-based;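 also: cells exposed to compound for about 90 hours before reading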
[2] = Luminescence Cell-Based Secondary HTS screen to identify cytotoxic compounds of NIH3T3 cells. [Related pubchem assays: 1885, 1968 ]; format: functional
[3] = Luminescence Cell-Based/Microorganism Confirmation at Dose of Inhibitors of Trypanosoma cruzi Infection. [Related pubchem assays: 1885, 1968 ]; format: functional
[4] = Trypanosoma cruzi growth suppression in host cells – NIH3T3 host cells, beta-gal luminescence, confirmation (AID 2044); format: functional, cell-based;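 also: intracellular parasites grown in NIH/3T3 mouse fibroblasts as host cells; luminescent beta-galactosidase reporter signal from transgenic T. cruzi replicating inside host cells; inhibitors lower the luminescence signal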
[5] = T. cruzi infection blockers in NIH3T3 cells – beta-gal luminescence, NIH3T3 host cells, confirmation (AID 2630); format: functional, cell-based; conditions: Mus musculus
[6] = target: T1, Kappa-type opioid receptor (Homo sapiens, UniProt P41145); format: functional
T1 sequence (P41145 whole entry): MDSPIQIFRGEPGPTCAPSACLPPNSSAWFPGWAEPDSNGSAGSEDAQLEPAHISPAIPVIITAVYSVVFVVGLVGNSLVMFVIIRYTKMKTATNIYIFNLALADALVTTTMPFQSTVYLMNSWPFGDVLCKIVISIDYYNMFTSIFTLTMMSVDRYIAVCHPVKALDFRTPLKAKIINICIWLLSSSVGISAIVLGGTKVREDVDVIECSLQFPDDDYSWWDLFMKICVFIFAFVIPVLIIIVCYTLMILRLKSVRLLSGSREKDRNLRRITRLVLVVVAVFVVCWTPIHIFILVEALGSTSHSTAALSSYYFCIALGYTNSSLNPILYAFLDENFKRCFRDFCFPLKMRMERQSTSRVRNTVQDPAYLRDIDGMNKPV

[7] = target: T2, Fatty acid synthase (Homo sapiens, UniProt P49327); assay: inhibition of human FAS-TE enzyme activity – biochemical, endpoint fluorescence intensity, uHTS hits, dose response (AID 624327); format: functional;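 also: fluorescence from hydrolysis of an O-methyl fluorescein acyl ester substrate by the enzyme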
T2 sequence (P49327 whole entry): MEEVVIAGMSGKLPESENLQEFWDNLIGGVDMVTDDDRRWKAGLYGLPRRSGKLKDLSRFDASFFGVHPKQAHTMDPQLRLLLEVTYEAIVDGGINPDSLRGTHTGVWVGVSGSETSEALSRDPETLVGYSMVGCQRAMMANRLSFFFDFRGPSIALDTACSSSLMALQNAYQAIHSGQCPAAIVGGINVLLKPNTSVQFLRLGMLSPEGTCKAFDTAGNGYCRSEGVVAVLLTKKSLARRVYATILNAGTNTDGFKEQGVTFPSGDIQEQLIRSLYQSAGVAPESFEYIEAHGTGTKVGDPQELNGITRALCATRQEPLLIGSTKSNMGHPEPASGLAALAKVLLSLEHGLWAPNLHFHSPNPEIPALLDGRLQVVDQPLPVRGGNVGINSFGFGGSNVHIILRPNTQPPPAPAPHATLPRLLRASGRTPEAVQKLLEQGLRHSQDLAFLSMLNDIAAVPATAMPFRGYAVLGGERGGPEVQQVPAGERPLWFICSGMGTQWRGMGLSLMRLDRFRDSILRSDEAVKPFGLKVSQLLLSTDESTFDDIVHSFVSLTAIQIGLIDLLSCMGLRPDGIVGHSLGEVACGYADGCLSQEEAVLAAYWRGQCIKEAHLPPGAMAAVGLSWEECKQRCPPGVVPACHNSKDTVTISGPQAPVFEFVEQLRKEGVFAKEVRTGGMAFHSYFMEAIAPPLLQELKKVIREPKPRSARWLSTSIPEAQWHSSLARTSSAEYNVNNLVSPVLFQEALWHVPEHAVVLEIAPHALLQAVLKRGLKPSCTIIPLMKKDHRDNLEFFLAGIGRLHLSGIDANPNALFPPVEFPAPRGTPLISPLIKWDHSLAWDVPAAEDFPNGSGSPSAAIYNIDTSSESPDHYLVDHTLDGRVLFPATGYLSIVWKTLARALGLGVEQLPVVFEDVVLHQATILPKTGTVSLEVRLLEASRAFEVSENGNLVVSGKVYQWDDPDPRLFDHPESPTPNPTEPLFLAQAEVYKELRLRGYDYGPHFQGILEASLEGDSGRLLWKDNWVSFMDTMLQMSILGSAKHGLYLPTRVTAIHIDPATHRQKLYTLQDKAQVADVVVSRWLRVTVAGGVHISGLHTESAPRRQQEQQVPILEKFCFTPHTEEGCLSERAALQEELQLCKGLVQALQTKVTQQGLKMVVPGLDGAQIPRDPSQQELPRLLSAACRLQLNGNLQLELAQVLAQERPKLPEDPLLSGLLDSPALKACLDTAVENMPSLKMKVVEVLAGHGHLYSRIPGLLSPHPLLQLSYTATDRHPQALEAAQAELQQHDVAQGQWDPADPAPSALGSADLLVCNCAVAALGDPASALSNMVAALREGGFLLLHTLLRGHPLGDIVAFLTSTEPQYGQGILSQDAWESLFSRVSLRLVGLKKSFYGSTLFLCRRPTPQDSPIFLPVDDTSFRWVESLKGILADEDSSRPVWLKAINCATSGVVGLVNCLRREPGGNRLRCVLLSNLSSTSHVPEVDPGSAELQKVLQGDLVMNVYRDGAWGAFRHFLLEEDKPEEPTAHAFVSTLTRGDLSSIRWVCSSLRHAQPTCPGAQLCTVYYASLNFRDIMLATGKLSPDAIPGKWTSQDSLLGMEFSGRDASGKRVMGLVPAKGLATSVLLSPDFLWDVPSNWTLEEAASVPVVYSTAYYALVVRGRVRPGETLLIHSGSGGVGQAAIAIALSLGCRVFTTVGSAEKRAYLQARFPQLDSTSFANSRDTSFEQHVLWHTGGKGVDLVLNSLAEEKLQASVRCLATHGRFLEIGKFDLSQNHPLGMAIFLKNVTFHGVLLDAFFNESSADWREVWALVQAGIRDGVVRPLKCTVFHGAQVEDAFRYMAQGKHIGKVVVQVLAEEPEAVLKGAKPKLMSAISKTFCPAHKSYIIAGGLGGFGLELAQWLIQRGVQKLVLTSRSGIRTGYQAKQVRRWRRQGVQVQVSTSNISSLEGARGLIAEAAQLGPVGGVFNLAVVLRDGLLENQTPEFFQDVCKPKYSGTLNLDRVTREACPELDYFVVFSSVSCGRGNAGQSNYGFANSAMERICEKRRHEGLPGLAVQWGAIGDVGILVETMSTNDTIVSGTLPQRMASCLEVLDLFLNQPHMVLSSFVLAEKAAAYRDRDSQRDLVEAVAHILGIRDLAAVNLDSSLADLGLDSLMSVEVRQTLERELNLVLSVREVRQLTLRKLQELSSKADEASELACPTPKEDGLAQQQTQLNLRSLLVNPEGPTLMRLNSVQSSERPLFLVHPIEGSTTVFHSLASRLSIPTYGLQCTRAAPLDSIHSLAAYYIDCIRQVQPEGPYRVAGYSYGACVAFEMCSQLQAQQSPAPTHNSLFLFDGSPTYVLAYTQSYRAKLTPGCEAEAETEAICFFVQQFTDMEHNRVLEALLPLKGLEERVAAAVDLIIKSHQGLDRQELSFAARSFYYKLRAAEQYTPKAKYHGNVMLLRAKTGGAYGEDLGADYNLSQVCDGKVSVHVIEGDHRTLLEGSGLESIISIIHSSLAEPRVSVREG

[8] = target: Beta-galactosidase (Escherichia coli, UniProt Q8VNN2); format: functional
[9] = HepG2 cell cytotoxicity, dose response, cytotoxicity control for non-replicating M. tuberculosis project (AID 489018); format: functional; conditions: Mycobacterium tuberculosis
[10] = target: T3, Delta-type opioid receptor (Homo sapiens, UniProt P41143); assay: HTS Image-Based Screen for Agonists of the DOR Receptor. [Related pubchem assays (depositor defined):AID1777, AID1786, AID2133]; format: functional
T3 sequence (P41143 whole entry, the tested form may be a part): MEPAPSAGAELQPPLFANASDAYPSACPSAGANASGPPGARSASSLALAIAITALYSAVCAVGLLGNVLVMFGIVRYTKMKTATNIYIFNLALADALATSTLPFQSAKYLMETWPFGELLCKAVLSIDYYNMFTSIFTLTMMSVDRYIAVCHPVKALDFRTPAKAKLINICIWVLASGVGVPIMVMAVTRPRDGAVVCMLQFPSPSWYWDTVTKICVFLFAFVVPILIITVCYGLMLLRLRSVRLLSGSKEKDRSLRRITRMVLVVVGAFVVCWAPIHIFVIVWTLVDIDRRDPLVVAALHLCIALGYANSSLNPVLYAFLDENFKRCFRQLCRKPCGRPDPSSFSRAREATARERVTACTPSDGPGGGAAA

[11] = test system: CHO; assay: CHO cell viability loss, potency – luminescence, cytotoxicity control for TLR9-MyD88 binding inhibitor project, dose response (AID 588339); format: functional, cell-based, hamster; conditions: Cricetulus griseus;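 also: CHO cells stably coexpressing TLR9 and MyD88 fusions from primary screen; compound exposure lasted 48 hours before viability readout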
[12] = target: T2, Fatty acid synthase; assay: inhibition of human FAS-TE enzyme activity – biochemical, kinetic fluorescence intensity, dose response (AID 624326); format: functional;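 also: rate of fluorescence rise from hydrolysis of a fluorogenic O-methyl fluorescein ester substrate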
[13] = viability of PTEN-deleted HCT116 cells – cell-based, HCT116 PTEN knockout, dose response (AID 1047); format: functional;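 also: HCT116 colon tumor cells with PTEN knocked out; cells exposed to compound for 60 hours before readout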
[14] = target: Beta Lactamase (Pseudomonas aeruginosa, UniProt Q932Y6); assay: BLA reporter interference, concentration series – BLA reporter cells, FRET fluorescence, artefact control for TLR9-MyD88 binding inhibitor project, dose response (AID 588341); format: cell-based;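 also: cell based assay in CHO-K1 cells stably expressing beta-lactamase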
Beta Lactamase, sequence (Q932Y6 whole entry): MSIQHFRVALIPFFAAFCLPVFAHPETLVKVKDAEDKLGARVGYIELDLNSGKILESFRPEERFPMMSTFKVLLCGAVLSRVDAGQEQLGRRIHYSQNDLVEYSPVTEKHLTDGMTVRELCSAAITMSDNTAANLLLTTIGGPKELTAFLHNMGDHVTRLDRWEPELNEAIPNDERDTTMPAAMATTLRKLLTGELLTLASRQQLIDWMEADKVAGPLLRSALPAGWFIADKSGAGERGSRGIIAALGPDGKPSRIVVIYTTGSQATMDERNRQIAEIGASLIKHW

[15] = target: Bifunctional protein GlmU (Mycobacterium tuberculosis, UniProt P9WMN3); assay: Inhibitors of Mycobacterial Glucosamine-1-phosphate acetyl transferase (GlmU). Secondary screen.; design: species or system Mycobacterium tuberculosis H37Rv
[16] = test system: BJ; assay: growth inhibition of engineered Ras-driven BJ cells – cell-based, alamar blue fluorescence, cherrypicked samples, dose response (AID 2631); format: functional; conditions: Homo sapiens;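 also: confirmatory dose-response assay in RAS-dependent BJ fibroblasts engineered with TERT, LT and ST, with cytotoxicity read by fluorescence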
[17] = viability of HCT116 lacking mutant beta-catenin – cell-based, human colon tumor, dose response (AID 1045); format: functional;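 also: HCT116 colon tumor cells with beta catenin knocked out; cells exposed to compound for 60 hours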
[18] = THP-1 cell cytotoxicity, dose response, cytotoxicity control for non-replicating M. tuberculosis project (AID 489025); format: functional
[19] = target: Mu-type opioid receptor (Homo sapiens, UniProt P35372); assay: HTS Image-Based Screen for Agonists of the MOR Receptor. [Related pubchem assays (depositor defined):AID1777, AID1785, AID1786, AID2133]; format: functional;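 also: imaging of beta-arrestin GFP recruitment into spots after receptor activation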
Mu-type opioid receptor, sequence (P35372 whole entry): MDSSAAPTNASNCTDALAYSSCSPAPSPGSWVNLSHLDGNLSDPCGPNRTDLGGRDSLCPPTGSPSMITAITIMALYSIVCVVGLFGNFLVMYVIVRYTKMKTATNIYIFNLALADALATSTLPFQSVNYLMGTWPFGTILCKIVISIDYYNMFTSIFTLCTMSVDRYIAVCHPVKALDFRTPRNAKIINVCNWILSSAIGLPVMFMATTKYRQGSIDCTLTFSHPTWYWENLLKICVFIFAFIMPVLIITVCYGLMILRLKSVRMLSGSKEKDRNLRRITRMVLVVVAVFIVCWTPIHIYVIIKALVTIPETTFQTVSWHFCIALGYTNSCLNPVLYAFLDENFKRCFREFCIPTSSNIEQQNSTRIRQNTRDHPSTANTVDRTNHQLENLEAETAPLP

[20] = loss of viability in HepG2 cells – cell-based, CellTiter-Glo, cherry-picked, cytotoxicity control for Shn3 inhibitor project, dose response (AID 624134); format: functional
[21] = Vero E6 cell cytotoxicity, dose response, cytotoxicity control for non-replicating M. tuberculosis project, secondary assay (AID 492998); format: functional, VeroE6; conditions: Vero C1008
[22] = target: T4, Replicative DNA helicase DnaB (Mycobacterium tuberculosis, UniProt P9WMR3); assay: DnaB intein splicing inhibitors, dose response, biochemical, cell-free fluorescence (AID 449749); format: functional
T4 sequence (P9WMR3 whole entry): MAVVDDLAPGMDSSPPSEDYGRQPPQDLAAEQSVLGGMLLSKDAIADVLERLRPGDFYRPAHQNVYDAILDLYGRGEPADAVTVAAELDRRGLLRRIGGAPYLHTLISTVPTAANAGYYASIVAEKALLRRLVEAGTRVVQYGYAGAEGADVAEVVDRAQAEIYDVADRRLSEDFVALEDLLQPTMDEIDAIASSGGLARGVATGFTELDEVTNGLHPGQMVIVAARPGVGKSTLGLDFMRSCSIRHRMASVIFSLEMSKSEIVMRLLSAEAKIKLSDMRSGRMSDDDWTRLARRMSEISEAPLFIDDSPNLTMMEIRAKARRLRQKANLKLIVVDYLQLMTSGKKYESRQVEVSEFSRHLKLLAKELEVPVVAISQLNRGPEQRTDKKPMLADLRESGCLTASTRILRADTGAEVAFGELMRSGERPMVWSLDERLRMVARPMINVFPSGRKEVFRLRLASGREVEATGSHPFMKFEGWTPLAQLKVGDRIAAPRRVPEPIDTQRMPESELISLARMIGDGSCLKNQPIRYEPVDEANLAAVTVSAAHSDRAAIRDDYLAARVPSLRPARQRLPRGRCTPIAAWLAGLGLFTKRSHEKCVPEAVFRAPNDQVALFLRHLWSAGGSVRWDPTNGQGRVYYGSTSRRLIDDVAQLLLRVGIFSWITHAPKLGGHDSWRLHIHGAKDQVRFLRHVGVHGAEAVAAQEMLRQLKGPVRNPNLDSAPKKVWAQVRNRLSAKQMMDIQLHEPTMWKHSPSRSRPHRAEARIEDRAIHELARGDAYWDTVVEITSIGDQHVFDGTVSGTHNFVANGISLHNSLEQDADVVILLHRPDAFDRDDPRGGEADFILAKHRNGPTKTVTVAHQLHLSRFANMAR

[23] = cells; format: functional
[24] = non-specific 3'UTR reporter inhibition in Clone20-Shn3RL – cell-based, Renilla luciferase, cherry-picked, counter-screen for Shn3 inhibitor project, dose response (AID 624133); format: functional
[25] = target: T3, Delta-type opioid receptor; assay: HTS Image-Based Screen for Antagonists of the DOR Receptor. [Related pubchem assays (depositor defined):AID1777, AID1785, AID1786, AID2133]; format: functional
[26] = target: T5, Protein RecA (Mycobacterium tuberculosis, UniProt P9WHJ3); assay: Fluorescence Cell-Free Homogeneous Dose Retest to Identify Inhibitors of RecA-Intein Splicing Activity. [Related pubchem assays (depositor defined):AID2097, AID2223, AID489010, AID492950]; format: functional
T5 sequence (P9WHJ3 whole entry): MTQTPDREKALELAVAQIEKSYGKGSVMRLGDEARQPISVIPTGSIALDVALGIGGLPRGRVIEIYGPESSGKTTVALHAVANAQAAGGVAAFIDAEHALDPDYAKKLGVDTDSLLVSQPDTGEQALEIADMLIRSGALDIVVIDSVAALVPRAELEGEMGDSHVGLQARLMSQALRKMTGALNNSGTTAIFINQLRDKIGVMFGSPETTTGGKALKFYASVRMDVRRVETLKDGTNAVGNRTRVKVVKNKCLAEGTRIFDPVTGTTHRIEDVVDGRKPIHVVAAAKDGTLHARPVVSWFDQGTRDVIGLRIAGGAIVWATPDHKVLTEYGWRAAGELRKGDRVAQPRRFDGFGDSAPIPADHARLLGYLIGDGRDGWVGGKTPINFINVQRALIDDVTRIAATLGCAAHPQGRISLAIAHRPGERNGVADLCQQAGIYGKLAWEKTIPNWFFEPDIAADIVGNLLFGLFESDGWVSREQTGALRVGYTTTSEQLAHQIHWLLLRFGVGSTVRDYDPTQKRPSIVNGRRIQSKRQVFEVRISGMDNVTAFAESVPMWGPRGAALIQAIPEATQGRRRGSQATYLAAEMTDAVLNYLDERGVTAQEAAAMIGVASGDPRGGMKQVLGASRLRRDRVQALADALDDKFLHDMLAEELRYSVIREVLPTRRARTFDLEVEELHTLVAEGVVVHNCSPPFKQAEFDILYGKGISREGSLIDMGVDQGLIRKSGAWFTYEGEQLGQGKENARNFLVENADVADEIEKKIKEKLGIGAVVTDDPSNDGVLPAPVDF

[27] = reduction of Shn3 3'UTR-driven luciferase in osteoblasts – cell-based, Clone20 osteoblasts, firefly luciferase, cherry-picked, dose response (AID 624132); format: functional;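 also: firefly luciferase luminescence from reporter carrying the Shn3 3'UTR in osteoblasts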
[28] = target: T1, Kappa-type opioid receptor; format: functional; remark: listed apart in the source
[29] = target: Potassium voltage-gated channel subfamily KQT member 2 (Rattus norvegicus, UniProt O88943); assay: rat KCNQ2 current potentiators – automated patch clamp, KCNQ2-CHO cells, SAR follow-up (AID 493113); format: functional
[30] = viability loss of HMLE_sh_eGFP cells – cell-based, luminescence, counter-screen for HMLE_sh_ECad selective toxicity project, dose response (AID 463074); format: functional, Homo sapiens;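 also: HMLE human mammary epithelial cells expressing control shRNA against eGFP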
[31] = Luminescence Cell-Based Dose Retest to Confirm Inhibitors of Cancer Stem Cells. [Related pubchem assays (depositor defined):AID2717, AID2721]; format: functional; conditions: Homo sapiens
[32] = target: Tyrosine-protein phosphatase non-receptor type 7 (Homo sapiens, UniProt P35236); format: functional
[33] = target: T6, Tyrosine-protein phosphatase non-receptor type 22 (Homo sapiens, UniProt Q9Y2R2); format: functional
T6 sequence (Q9Y2R2 whole entry): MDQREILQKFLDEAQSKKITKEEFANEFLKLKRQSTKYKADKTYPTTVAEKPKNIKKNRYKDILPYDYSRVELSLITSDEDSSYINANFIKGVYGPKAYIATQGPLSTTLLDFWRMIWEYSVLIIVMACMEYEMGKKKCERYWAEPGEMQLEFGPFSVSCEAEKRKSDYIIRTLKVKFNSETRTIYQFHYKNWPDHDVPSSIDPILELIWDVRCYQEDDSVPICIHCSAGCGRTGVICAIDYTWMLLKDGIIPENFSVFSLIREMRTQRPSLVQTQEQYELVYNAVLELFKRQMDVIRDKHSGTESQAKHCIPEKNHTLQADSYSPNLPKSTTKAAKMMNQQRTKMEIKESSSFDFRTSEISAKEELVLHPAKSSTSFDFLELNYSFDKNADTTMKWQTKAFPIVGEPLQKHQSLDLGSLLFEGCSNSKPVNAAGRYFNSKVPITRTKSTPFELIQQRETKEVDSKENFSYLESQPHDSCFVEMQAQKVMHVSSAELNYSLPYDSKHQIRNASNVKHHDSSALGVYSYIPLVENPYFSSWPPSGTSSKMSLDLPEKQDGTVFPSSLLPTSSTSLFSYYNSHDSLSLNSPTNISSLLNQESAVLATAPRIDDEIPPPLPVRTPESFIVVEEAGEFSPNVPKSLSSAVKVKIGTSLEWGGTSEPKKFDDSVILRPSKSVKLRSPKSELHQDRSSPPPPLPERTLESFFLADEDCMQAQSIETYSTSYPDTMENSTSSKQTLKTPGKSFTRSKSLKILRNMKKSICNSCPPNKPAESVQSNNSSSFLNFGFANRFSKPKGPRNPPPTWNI

[34] = target: T6, Tyrosine-protein phosphatase non-receptor type 22; format: functional; remark: listed apart in the source
[35] = target: T7, High affinity choline transporter 1 (Homo sapiens, UniProt Q9GZV3); assay: human choline transporter blockers, potency – cell-based, 5-point CRC, membrane potential dye, dose response (AID 504840); format: functional
T7 sequence (Q9GZV3 whole entry): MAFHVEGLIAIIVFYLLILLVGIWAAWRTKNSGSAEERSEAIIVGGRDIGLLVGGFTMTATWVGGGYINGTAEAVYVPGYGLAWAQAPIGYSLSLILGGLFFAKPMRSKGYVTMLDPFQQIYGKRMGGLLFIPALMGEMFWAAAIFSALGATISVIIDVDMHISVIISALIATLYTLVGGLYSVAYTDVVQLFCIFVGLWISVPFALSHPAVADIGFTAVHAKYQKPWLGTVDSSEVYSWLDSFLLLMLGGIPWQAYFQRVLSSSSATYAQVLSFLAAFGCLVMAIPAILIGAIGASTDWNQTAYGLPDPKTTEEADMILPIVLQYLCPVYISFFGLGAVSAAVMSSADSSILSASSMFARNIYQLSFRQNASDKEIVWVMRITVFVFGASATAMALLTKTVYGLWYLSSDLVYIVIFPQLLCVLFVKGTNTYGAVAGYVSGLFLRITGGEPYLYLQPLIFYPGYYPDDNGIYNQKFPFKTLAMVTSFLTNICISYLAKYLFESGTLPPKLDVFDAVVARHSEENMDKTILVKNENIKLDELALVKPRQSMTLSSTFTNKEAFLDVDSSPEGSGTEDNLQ

[36] = target: Cytochrome P450 3A4 (Homo sapiens, UniProt P08684);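 also: CYP3A4 tested as one member of a cytochrome P450 panel screen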
[37] = target: Cytochrome P450 2C19 (Homo sapiens, UniProt P33261); assay: Cytochrome panel assay with activity outcomes. Panel member name: p450-cyp2c19 Compounds with AC50 equal or less than 10 uM are considered active; format: functional
[38] = target: T8, Cytochrome P450 1A2 (Homo sapiens, UniProt P05177);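 also: PubChem cytochrome P450 panel assay, CYP1A2 panel member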
T8 sequence (P05177 whole entry): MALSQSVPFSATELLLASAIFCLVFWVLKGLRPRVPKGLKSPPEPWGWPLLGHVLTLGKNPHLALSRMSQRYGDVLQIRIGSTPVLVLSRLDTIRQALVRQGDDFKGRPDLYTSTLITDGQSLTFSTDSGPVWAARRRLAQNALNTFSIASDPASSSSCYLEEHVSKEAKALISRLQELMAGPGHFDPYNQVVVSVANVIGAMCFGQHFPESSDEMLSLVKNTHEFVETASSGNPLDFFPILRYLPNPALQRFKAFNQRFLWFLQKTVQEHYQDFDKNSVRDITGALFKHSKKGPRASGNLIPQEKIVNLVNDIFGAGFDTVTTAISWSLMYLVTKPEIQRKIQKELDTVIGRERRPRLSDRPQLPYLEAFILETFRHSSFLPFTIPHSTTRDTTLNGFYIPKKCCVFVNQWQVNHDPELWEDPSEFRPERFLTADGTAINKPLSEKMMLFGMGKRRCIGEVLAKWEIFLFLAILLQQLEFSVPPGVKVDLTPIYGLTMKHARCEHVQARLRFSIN

## COC(=O)N/N=C/c1ccc([N+](=O)[O-])o1
[1]
  EC50: > 60 µM (not active)
[2]
  EC50: > 195 µM (not active)
[3]
  EC50: 0.123 µM (active)
[4]
  EC50: 0.469 µM (active)
[5]
  EC50: 0.123 µM (active)

## CCCC(=O)OCCNc1cc(Sc2nccn2C)c2nonc2c1[N+](=O)[O-]
[6]
  IC50: 30.5 µM
[7]
  IC50: 5.11 µM (active)
[8]
  EC50: > 31.5 µM (inactive)
[9]
  CC50: 13.3 µM (active)
[10]
  EC50: > 32 µM (inactive)
[11]
  IC50: 3.21 µM (active)
[12]
  IC50: 2.57 µM (active)
[13]
  EC50: 6.43 µM (active)
[14]
  IC50: 8.31 µM (active)
[15]
  IC50: 136 µM (active)
[16]
  EC50: 2.82 µM (active)
[17]
  EC50: 4.63 µM (active)
[18]
  CC50: 19.2 µM (active)
[19]
  EC50: > 32 µM (inactive)
[20]
  AC50: 15.7 µM (active)
[21]
  CC50: 16.6 µM (active)
[22]
  AC50: 1.14 µM (active)
[23]
  IC50: 6.13 µM (active)
[24]
  AC50: 12.2 µM (active)
[25]
  IC50: > 32 µM (inactive)
[26]
  EC50: 1.27 µM (active)
[27]
  AC50: 7.22 µM (active)
[28]
  IC50: 5.47 µM (active)

## CCc1ccc(NC(=O)C2CC3CCC2C3)cc1 (stereo not drawn)
[29]
  EC50: 0.92 µM (active)

## O=C(NCCCn1ccnc1)c1cccc(S(=O)(=O)N2CCCCCC2)c1
[30]
  AC50: 27.2 µM (active)
[31]
  AC50: 18.9 µM (active)

## Cc1occc1C(=O)NNS(=O)(=O)c1ccc(Cl)cc1
[32]
  IC50: > 79.4 µM (inactive)
[33]
  IC50: > 79.4 µM (inactive)
[34]
  IC50: > 79.4 µM (inactive)
[35]
  IC50: 13.5 µM (active)

## O=C(O)CNC(=O)c1ccc([As](=O)(O)O)cc1
[36]
  AC50: inactive
[37]
  AC50: inactive
[38]
  AC50: inactive
